{"source": "ChEMBL document CHEMBL1124790", "about": "“Angiotensin converting enzyme inhibitors. 10. Aryl sulfonamide substituted N-[1-carboxy-3-phenylpropyl]-L-alanyl-L-proline derivatives as novel antihypertensives” (J Med Chem, 1990)", "key": {"Rattus norvegicus [1]": {"system": "Rattus norvegicus", "test": "Time duration was determined for the actioni (determination of MAP in po administration) in rat", "assay_type": "functional"}, "Rattus norvegicus [2]": {"species_on_record": "Rattus norvegicus", "test": "The onset hour was determined in rat", "assay_type": "functional"}, "[3]": {"target": "T1, Angiotensin-converting enzyme (Oryctolagus cuniculus) (UniProt P12822)", "T1 sequence (whole entry)": "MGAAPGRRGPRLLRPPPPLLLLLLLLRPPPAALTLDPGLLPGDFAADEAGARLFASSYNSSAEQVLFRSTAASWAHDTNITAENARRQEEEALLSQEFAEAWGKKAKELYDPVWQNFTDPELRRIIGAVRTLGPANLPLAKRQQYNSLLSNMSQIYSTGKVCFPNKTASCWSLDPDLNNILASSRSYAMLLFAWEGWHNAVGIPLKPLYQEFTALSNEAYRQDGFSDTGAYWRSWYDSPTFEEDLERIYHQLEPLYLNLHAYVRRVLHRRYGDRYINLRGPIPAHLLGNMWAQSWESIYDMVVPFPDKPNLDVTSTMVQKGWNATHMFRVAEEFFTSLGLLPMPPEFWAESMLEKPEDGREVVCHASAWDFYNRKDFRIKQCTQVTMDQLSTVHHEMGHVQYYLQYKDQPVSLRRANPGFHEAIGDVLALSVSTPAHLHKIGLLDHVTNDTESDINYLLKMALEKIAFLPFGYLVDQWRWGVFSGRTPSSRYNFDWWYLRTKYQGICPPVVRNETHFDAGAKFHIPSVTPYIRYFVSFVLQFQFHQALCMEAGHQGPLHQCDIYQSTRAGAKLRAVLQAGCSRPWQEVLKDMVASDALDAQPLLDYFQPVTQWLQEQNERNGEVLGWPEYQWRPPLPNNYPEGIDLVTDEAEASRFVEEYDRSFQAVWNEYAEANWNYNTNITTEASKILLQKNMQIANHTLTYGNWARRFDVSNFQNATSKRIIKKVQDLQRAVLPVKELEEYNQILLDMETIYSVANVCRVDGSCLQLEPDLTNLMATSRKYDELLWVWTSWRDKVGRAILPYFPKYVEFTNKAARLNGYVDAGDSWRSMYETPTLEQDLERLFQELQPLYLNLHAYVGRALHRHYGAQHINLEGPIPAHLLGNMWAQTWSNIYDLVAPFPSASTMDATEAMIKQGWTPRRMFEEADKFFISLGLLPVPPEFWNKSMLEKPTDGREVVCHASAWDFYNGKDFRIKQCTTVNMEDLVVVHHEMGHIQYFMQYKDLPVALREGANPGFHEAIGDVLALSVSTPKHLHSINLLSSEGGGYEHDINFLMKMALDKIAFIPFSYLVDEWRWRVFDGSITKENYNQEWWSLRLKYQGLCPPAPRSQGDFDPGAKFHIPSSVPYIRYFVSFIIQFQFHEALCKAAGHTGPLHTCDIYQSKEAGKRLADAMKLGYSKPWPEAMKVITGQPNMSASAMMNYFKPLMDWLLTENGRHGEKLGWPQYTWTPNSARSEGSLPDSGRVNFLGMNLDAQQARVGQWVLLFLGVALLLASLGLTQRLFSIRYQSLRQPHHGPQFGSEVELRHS", "settings": "Lung"}, "[4]": {"target": "T1, Angiotensin-converting enzyme (Oryctolagus cuniculus)", "test": "Time to inhibit maximum Angiotensin I converting enzyme in rabbit lung", "assay_type": "functional, tissue-based"}, "[5]": {"target": "Angiotensin-converting enzyme (Homo sapiens) (UniProt P12821+Q9BYF1)", "sequence (P12821 whole entry, looked up)": "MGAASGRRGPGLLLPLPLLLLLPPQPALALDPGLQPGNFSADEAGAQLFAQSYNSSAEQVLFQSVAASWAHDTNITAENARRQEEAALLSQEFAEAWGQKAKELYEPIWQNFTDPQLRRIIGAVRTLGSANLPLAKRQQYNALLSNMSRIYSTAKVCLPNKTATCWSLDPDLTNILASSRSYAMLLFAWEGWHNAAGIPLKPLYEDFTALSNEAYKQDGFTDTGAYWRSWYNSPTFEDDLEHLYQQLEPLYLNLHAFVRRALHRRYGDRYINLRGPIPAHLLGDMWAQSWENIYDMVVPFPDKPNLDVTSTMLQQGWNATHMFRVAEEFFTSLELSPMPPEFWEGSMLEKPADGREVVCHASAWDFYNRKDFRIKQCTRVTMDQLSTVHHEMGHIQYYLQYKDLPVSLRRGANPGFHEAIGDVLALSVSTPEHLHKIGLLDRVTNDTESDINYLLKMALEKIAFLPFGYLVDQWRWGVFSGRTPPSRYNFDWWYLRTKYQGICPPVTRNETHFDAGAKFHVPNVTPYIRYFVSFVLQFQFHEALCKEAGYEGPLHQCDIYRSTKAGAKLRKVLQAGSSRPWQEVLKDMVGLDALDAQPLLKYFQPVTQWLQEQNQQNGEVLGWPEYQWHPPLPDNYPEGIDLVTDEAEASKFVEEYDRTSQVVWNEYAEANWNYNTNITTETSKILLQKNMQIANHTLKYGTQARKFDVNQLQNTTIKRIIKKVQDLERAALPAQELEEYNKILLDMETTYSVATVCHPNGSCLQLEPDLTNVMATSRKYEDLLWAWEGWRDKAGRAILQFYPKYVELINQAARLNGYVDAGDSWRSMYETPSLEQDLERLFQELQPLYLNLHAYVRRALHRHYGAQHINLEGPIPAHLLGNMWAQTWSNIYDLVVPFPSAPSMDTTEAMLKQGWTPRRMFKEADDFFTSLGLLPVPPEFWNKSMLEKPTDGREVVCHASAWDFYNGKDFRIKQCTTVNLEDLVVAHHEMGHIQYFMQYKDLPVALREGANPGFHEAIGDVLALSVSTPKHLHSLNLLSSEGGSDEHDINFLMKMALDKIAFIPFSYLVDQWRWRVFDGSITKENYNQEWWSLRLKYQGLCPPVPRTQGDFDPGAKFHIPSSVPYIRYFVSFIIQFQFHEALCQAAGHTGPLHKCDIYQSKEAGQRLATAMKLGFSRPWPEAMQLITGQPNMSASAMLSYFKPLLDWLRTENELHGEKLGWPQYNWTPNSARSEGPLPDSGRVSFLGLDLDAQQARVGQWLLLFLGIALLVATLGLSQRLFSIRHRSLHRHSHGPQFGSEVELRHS", "sequence (Q9BYF1 whole entry, looked up)": "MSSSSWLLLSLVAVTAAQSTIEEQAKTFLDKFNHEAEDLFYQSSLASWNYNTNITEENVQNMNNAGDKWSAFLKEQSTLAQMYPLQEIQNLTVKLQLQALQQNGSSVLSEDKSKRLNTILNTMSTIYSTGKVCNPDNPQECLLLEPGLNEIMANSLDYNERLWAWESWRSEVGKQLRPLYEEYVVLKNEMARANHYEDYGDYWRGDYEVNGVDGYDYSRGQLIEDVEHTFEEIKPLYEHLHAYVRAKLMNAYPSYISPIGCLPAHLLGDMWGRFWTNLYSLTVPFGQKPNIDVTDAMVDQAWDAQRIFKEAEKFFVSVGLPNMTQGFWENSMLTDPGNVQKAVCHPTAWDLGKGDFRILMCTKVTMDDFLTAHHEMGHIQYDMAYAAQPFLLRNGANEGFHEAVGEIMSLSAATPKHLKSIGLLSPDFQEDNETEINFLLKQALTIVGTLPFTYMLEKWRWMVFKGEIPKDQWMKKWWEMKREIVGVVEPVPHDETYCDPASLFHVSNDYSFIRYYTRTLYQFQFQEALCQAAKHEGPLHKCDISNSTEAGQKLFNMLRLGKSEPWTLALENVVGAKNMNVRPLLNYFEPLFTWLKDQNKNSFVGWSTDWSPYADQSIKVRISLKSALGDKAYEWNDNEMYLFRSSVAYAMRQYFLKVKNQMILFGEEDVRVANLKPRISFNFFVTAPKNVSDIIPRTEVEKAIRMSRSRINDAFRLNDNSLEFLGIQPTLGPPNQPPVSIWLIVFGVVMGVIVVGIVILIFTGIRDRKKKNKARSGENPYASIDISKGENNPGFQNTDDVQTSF", "settings": "Sus scrofa; Plasma"}, "Rattus norvegicus [6]": {"system": "Rattus norvegicus", "test": "Antihypertensive activity was determined in spontaneously hypertensive rat at a dose of 3 mg/kg(po) administration", "assay_type": "functional"}, "Rattus norvegicus [7]": {"system": "Rattus norvegicus", "test": "Percent change in K+ in fasted rats at the dose of 30 mg/kg (ip), 0-5 h; NA=Inactive", "assay_type": "functional, organism-based", "set-up": "dose 30 mg/kg"}, "[8]": {"target": "T1, Angiotensin-converting enzyme (Oryctolagus cuniculus)", "test": "Time during which angiotensin I converting enzyme inhibition is greater than or equa to 30% in rabbit lung", "assay_type": "functional, tissue-based"}, "[9]": {"target": "T1, Angiotensin-converting enzyme (Oryctolagus cuniculus)", "test": "Time to inhibit maximum angiotensin I converting enzyme in rabbit lung", "assay_type": "functional, tissue-based"}, "[10]": {"target": "T2, Angiotensin-converting enzyme (Oryctolagus cuniculus, UniProt P12822)", "T2 sequence (P12822 whole entry)": "T1 sequence (whole entry)", "test": "In vitro inhibition of angiotensin I converting enzyme (ACE) in rabbit lung", "assay_type": "tissue-based"}, "[11]": {"target": "T1, Angiotensin-converting enzyme (Oryctolagus cuniculus)", "test": "In vivo inhibition of angiotensin I converting enzyme (ACE) in rabbit lung after (po) administration of a dose of 10(mg/kg)", "assay_type": "organism-based"}, "[12]": {"target": "T1, Angiotensin-converting enzyme (Oryctolagus cuniculus)", "test": "In vivo inhibition of Angiotensin I converting enzyme in rabbit lung after (po) administration of a dose of 10(mg/kg)", "assay_type": "organism-based"}, "Rattus norvegicus [13]": {"system": "Rattus norvegicus", "test": "Percent change in K+ in fasted rats at the dose of 10 mg/kg (iv), 0-5 h", "assay_type": "functional"}, "Rattus norvegicus [14]": {"system": "Rattus norvegicus", "test": "Percent change in K+ in fasted rats at the dose of 30 mg/kg (po), 0-5 h", "assay_type": "functional"}, "Rattus norvegicus [15]": {"system": "Rattus norvegicus", "test": "Percent change in urinary volume in fasted rats at the dose of 10 mg/kg (iv), 0-5 h", "assay_type": "functional, Urine"}, "Rattus norvegicus [16]": {"system": "Rattus norvegicus", "test": "Percent change in Na+in fasted rats at the dose of 30 mg/kg (po), 0-5 h", "assay_type": "functional"}, "Rattus norvegicus [17]": {"system": "Rattus norvegicus", "test": "Percent change in Na+ in fasted rats at the dose of 10 mg/kg (iv), 0-5 h", "assay_type": "functional"}, "Rattus norvegicus [18]": {"system": "Rattus norvegicus", "test": "Percent change in urinary volume in fasted rats at the dose of 30 mg/kg (po), 0-5 h", "assay_type": "functional, Urine"}}, "note": "Activity calls are given as the source filed them. No cut-off for these calls is given here."}
{"molecule": "CCOC(=O)[C@H](CCc1ccccc1)N[C@@H](C)C(=O)N1CCC[C@H]1C(=O)O", "values": [{"measurement": "Duration", "setting": "Rattus norvegicus [1]", "value": 4, "unit": "h"}, {"measurement": "Onset", "setting": "Rattus norvegicus [2]", "value": 1, "unit": "h"}, {"measurement": "Duration", "setting": "[3]", "value": "> 4", "unit": "h"}, {"measurement": "Time to max. inhibition", "setting": "[4]", "value": 1, "unit": "h"}, {"measurement": "Duration", "setting": "[5]", "value": "> 3", "unit": "h"}, {"measurement": "Change in MAP", "setting": "Rattus norvegicus [6]", "value": -10, "unit": "%"}]}
{"molecule": "C[C@H](N[C@@H](CCc1ccccc1)C(=O)O)C(=O)N1CC2(C[C@H]1C(=O)O)Nc1cc(Cl)c(S(N)(=O)=O)cc1S(=O)(=O)N2", "note": "(stereo partly specified)", "values": [{"measurement": "Change", "setting": "Rattus norvegicus [7]", "value": "inactive"}, {"measurement": "Duration", "setting": "[8]", "value": 2.1, "unit": "h"}, {"measurement": "Time to max. inhibition", "setting": "[9]", "value": 1, "unit": "h"}, {"measurement": "IC50", "setting": "[10]", "value": 85, "unit": "nM"}, {"measurement": "inhibition", "setting": "[11]", "value": 54, "unit": "%"}]}
{"molecule": "C[C@H](N[C@@H](CCc1ccccc1)C(=O)O)C(=O)N1CCC[C@H]1C(=O)O", "values": [{"measurement": "inhibition", "setting": "[12]", "value": 74, "unit": "%"}]}
{"molecule": "C[C@H](CS)C(=O)N1CCC[C@H]1C(=O)O", "values": [{"measurement": "inhibition", "setting": "[12]", "value": 69, "unit": "%"}, {"measurement": "Duration", "setting": "[3]", "value": 2, "unit": "h"}, {"measurement": "Time to max. inhibition", "setting": "[4]", "value": 0.7, "unit": "h"}]}
{"molecule": "NS(=O)(=O)c1cc2c(cc1Cl)N=CNS2(=O)=O", "note": "[CHLOROTHIAZIDE]", "values": [{"measurement": "Change", "setting": "Rattus norvegicus [13]", "value": 100, "unit": "%"}, {"measurement": "Change", "setting": "Rattus norvegicus [14]", "value": 71, "unit": "%"}, {"measurement": "Change", "setting": "Rattus norvegicus [15]", "value": 83, "unit": "%"}, {"measurement": "Change", "setting": "Rattus norvegicus [16]", "value": 0, "unit": "%"}, {"measurement": "Change", "setting": "Rattus norvegicus [17]", "value": 60, "unit": "%"}, {"measurement": "Change", "setting": "Rattus norvegicus [18]", "value": 94, "unit": "%"}]}
